This note sets out measurements from PubChem BioAssay AID256 (DTP/NCI, 2004).

Several values for one entry are separate records, joined by “and”; a condition that tells them apart may be missing. Identical values can stand only once. Toxic doses and inconclusive results are not listed.

The test system of the test is CD2F1 mice, L1210 leukemia ip, survival T/C. The test can be described thus: NCI In Vivo Anticancer Drug Screen. Data for tumor model L1210 Leukemia (intraperitoneal) in CD2F1 (CDF1) mice. Particulars: endpoint: mean survival time, higher = longer survival. The gist of the method: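 Read-out first: treated-group measurement over vehicle-control measurement, expressed as a ratio. Animals bore a transplanted tumor line and were dosed with compound or vehicle.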

The mark [1] stands for this setting: dose: 50.0 mg/kg/injection, schedule: Q01DX009 (ip), vehicle: Klucel (hydroxypropylcellulose) (HPC).
Where [2] appears, read: dose: 100.0 mg/kg/injection, schedule: Q01DX009 (ip), vehicle: Klucel (hydroxypropylcellulose) (HPC).
The mark [3] stands for this setting: dose: 200.0 mg/kg/injection, schedule: Q01DX009 (ip), vehicle: Klucel (hydroxypropylcellulose) (HPC).
Setting [4] is: dose: 100.0 mg/kg/injection, schedule: Q04DX003 (ip), vehicle: saline.
The mark [5] stands for this setting: dose: 200.0 mg/kg/injection, schedule: Q04DX003 (ip), vehicle: saline.
[6] abbreviates: dose: 400.0 mg/kg/injection, schedule: Q04DX003 (ip), vehicle: saline.
The mark [7] stands for this setting: dose: 100.0 mg/kg/injection, schedule: Q04DX003 (ip), vehicle: saline with Tween-80.
The mark [8] stands for this setting: dose: 200.0 mg/kg/injection, schedule: Q04DX003 (ip), vehicle: saline with Tween-80.
Setting [9] is: dose: 400.0 mg/kg/injection, schedule: Q04DX003 (ip), vehicle: saline with Tween-80.
Setting [10] is: dose: 200.0 mg/kg/injection, schedule: Q01DX009 (ip), vehicle: saline with Tween-80.
Where [11] appears, read: dose: 400.0 mg/kg/injection, schedule: Q01DX009 (ip), vehicle: saline with Tween-80.
Where [12] appears, read: dose: 100.0 mg/kg/injection, schedule: Q01DX009 (ip), vehicle: saline with Tween-80.
Setting [13] is: dose: 100.0 mg/kg/injection, schedule: Q01DX001 (ip), vehicle: saline.
Where [14] appears, read: dose: 200.0 mg/kg/injection, schedule: Q01DX001 (ip), vehicle: saline.

As for `O=S(=O)(O)c1ccccc1.O=S(=O)(O)c1ccccc1.[NH-]C1CCCCC1[NH-].[Pt+2]`, the T/C is, setting by setting: (dose: 1.0 mg/kg/injection, schedule: Q01DX009 (ip), vehicle: dextrose) 220 % of control; (dose: 1.0 mg/kg/injection, schedule: Q04DX003 (ip), vehicle: other) 170 % of control; (dose: 2.0 mg/kg/injection, schedule: Q04DX003 (ip), vehicle: other) 218 % of control; (dose: 4.0 mg/kg/injection, schedule: Q01DX001 (ip), vehicle: dextrose) 155 % of control; (dose: 4.0 mg/kg/injection, schedule: Q04DX003 (ip), vehicle: dextrose) 221 % of control; (dose: 6.0 mg/kg/injection, schedule: Q04DX003 (ip), vehicle: dextrose) 200 % of control. In addition, the T/C reads like this: (dose: 6.0 mg/kg/injection, schedule: Q04DX003 (ip), vehicle: other) 119 % of control; (dose: 8.0 mg/kg/injection, schedule: Q01DX001 (ip), vehicle: dextrose) 155 % of control; (dose: 8.0 mg/kg/injection, schedule: Q04DX003 (ip), vehicle: dextrose) 191 % of control; (dose: 12.0 mg/kg/injection, schedule: Q01DX001 (ip), vehicle: dextrose) 196 % of control; (dose: 16.0 mg/kg/injection, schedule: Q01DX001 (ip), vehicle: dextrose) 152 % of control and 303 % of control; (dose: 24.0 mg/kg/injection, schedule: Q01DX001 (ip), vehicle: dextrose) 262 % of control.

As to `O=C1CSC(=S)N1/N=C/c1ccc(Cl)c(Cl)c1`, the T/C was 97 % of control (dose: 1.56 mg/kg/injection, schedule: Q01DX009 (ip), vehicle: saline with Tween-80); 100 % of control (dose: 3.13 mg/kg/injection, schedule: Q01DX009 (ip), vehicle: saline with Tween-80); 91 % of control (dose: 6.25 mg/kg/injection, schedule: Q01DX009 (ip), vehicle: saline with Tween-80); 100 % of control (dose: 6.25 mg/kg/injection, schedule: Q04DX003 (ip), vehicle: saline with Tween-80).

On to `CN(C)c1ccc(N=Nc2ccc(C(=O)Cl)cc2)cc1`, for which the T/C runs as follows: under setting [1], 98 % of control; under setting [2], 91 % of control; under setting [3], 94 % of control.

Turning to `c1cc[c]([Ge]([c]2ccccc2)([c]2ccccc2)[c]2ccccc2)cc1`, the T/C was 86 % of control under setting [4], 86 % of control under setting [5] and 91 % of control under setting [6].

With `NC(=O)CC(NC(=O)OCc1ccccc1)C(=O)O` (stereo not drawn), the T/C by setting is: under setting [7], 95 % of control; under setting [8], 101 % of control; under setting [9], 93 % of control.

As for `[Cl][Pt+2][Cl].[NH-]C1CC1.[NH2-]`, the T/C runs as follows: (dose: 0.39 mg/kg/injection, schedule: Q04DX003 (ip), vehicle: saline) 101 % of control; (dose: 0.78 mg/kg/injection, schedule: Q04DX003 (ip), vehicle: saline) 103 % of control and 104 % of control; (dose: 1.56 mg/kg/injection, schedule: Q04DX003 (ip), vehicle: saline) 121 % of control and 108 % of control; (dose: 3.12 mg/kg/injection, schedule: Q04DX003 (ip), vehicle: saline with Tween-80) 124 % of control.

Regarding `Cc1ccc(C)c(C(=O)O)c1N`, the T/C under setting [7] was 95 % of control, the T/C under setting [8] is 95 % of control and the T/C under setting [9] is 100 % of control.

Take `O=C(O/N=C(/CBr)c1ccccc1)c1ccccc1`: the T/C (dose: 75.0 mg/kg/injection, schedule: Q01DX001 (ip), vehicle: other) is 101 % of control; the T/C (dose: 150.0 mg/kg/injection, schedule: Q01DX001 (ip), vehicle: other) was 97 % of control; the T/C (dose: 300.0 mg/kg/injection, schedule: Q01DX001 (ip), vehicle: other) was 103 % of control.

For the compound `Cc1cc(C)nc(NC(=S)N/N=C/c2ccc(O)cn2)n1`, the T/C (dose: 100.0 mg/kg/injection, schedule: Q04DX002 (ip), vehicle: saline with Tween-80) was 87 % of control; the T/C (dose: 200.0 mg/kg/injection, schedule: Q04DX002 (ip), vehicle: saline with Tween-80) was 91 % of control; the T/C (dose: 400.0 mg/kg/injection, schedule: Q04DX002 (ip), vehicle: saline with Tween-80) is 91 % of control.

For the compound `CCOC(=O)C(C)(C)CO`, the T/C was 93 % of control (dose: 100.0 mg/kg/injection, schedule: Q01DX009 (ip), vehicle: saline sonified); 101 % of control (dose: 200.0 mg/kg/injection, schedule: Q01DX009 (ip), vehicle: saline sonified); 103 % of control (dose: 400.0 mg/kg/injection, schedule: Q01DX009 (ip), vehicle: saline sonified); 90 % of control (dose: 800.0 mg/kg/injection, schedule: Q01DX009 (ip), vehicle: saline sonified).

In the case of `O=C(O)C(O)(c1ccccc1)C1CCCC1` (stereo not drawn), the T/C was 109 % of control under setting [10] and 112 % of control under setting [11].

As to `CCCCNC(=O)CC(C)C(=O)O` (stereo not drawn), the T/C is 102 % of control under setting [7], 98 % of control under setting [8] and 102 % of control under setting [9].

As to `c1ccc(C2=C(c3ccccc3)C(c3ccccc3)(c3ccccc3)c3ccccc32)cc1`, the T/C was 101 % of control under setting [7], 98 % of control under setting [8] and 98 % of control under setting [9].

For the compound `Cc1cc(=O)[nH]c2c(C)cc(Cl)cc12`, the T/C runs as follows: under setting [7], 106 % of control; under setting [8], 109 % of control; under setting [9], 97 % of control.

As to `CN(C)C(=S)Nc1ccccc1`, the T/C under setting [12] is 95 % of control; the T/C under setting [7] was 93 % of control; the T/C under setting [10] was 95 % of control; the T/C under setting [8] was 90 % of control; the T/C under setting [9] was 88 % of control.

On to `CC(=O)OC1CCC2(C)C(=CCC3C2CCC2(C)C(C(C)CCCC(C)C)CCC32)C1` (stereo not drawn), for which the T/C under setting [1] is 96 % of control, the T/C under setting [2] is 93 % of control and the T/C under setting [3] was 86 % of control.

`COC(=O)c1c[nH]c(=S)n1C(C)c1ccccc1` (stereo not drawn): the T/C is 105 % of control under setting [12]; 93 % of control under setting [7]; 106 % of control under setting [10]; 95 % of control under setting [8]; 101 % of control under setting [9].

`CCCCCCCCCCCCCCCCOc1ccc(S(=O)(=O)N(C)C)cc1[N+](=O)[O-]`: the T/C runs as follows: under setting [7], 90 % of control; under setting [8], 96 % of control; under setting [9], 90 % of control.

Take `C=C(C)CSc1ccccc1`: the T/C is 97 % of control (dose: 5.0 mg/kg/injection, schedule: Q01DX001 (ip), vehicle: saline); 97 % of control (dose: 10.0 mg/kg/injection, schedule: Q01DX001 (ip), vehicle: saline); 97 % of control (dose: 20.0 mg/kg/injection, schedule: Q01DX001 (ip), vehicle: saline); 97 % of control (dose: 40.0 mg/kg/injection, schedule: Q01DX001 (ip), vehicle: saline); 97 % of control (dose: 80.0 mg/kg/injection, schedule: Q01DX001 (ip), vehicle: saline); 95 % of control under setting [13]. Also, under setting [14], the T/C was 103 % of control.

With `N=C(N)SC(c1ccccc1)c1ccccc1`, the T/C (dose: 25.0 mg/kg/injection, schedule: Q04DX003 (ip), vehicle: saline) was 100 % of control; the T/C (dose: 50.0 mg/kg/injection, schedule: Q04DX003 (ip), vehicle: saline) is 94 % of control; the T/C under setting [4] was 102 % of control.

In the case of `COc1cc(Br)c(CC2c3cc(OC)c(OC)cc3CCN2C)cc1OC` (stereo not drawn), the T/C was 101 % of control under setting [13] and 101 % of control under setting [14].

`CN(C)CCCNCc1c[nH]c(=O)[nH]c1=O`: the T/C (dose: 100.0 mg/kg/injection, schedule: Q01DX009 (ip), vehicle: saline) was 90 % of control; the T/C under setting [4] is 102 % of control; the T/C (dose: 200.0 mg/kg/injection, schedule: Q01DX009 (ip), vehicle: saline) was 102 % of control; the T/C under setting [5] was 100 % of control; the T/C (dose: 400.0 mg/kg/injection, schedule: Q01DX009 (ip), vehicle: saline) is 104 % of control; the T/C under setting [6] was 100 % of control.

Take `O=C(O)C1Cc2nc[nH]c2CN1CO` (stereo not drawn): the T/C (dose: 12.5 mg/kg/injection, schedule: Q01DX009 (ip), vehicle: saline with Tween-80) is 100 % of control; the T/C (dose: 25.0 mg/kg/injection, schedule: Q01DX009 (ip), vehicle: saline with Tween-80) is 100 % of control and 102 % of control; the T/C (dose: 50.0 mg/kg/injection, schedule: Q01DX009 (ip), vehicle: saline with Tween-80) is 100 % of control; the T/C under setting [12] is 104 % of control and 109 % of control; the T/C under setting [10] was 108 % of control; the T/C under setting [11] was 108 % of control and 109 % of control.
